This passage reports IC50 results from ChEMBL document CHEMBL5729348, “Heterocyclic compounds for the inhibition of PASK” (2022).

A value given as a limit tells only on which side of the number the result lay.

The target of this assay is PAS domain-containing serine/threonine-protein kinase (Homo sapiens, UniProt Q96RG2). Nature of the assay: PAS Kinase FRET Assay: The aim of the FRET assay is to determine the inhibition potential of test compounds on targeted kinase. This assay platform provides a homogenous screening method for measuring kinase activity by quantitating the amount of phospho-substrate in solution following a kinase reaction.In the presence of kinase and ATP, the Ulight-peptide is phosphorylated and captured by an anti-phospho-substrate antibody, which brings the Eu chelate donor and Ulight acceptor dyes into close proximity. Upon excitation at 340 nm, the Eu chelate transfers its energy to the Ulight dye, resulting in a fluorescent light emission at 665 nm.Titration of kinase at 1 mM ATP was achieved via the following protocol. After making serial three-fold dilutions of PASK (Invitrogen) in reaction buffer across the plate; 5 μl of kinase dilution and 5 μl substrate/ATP mix were added to the wells of the white Optiplate-384 (PerkinElmer). The contents of the plate were and incubated at RT for 1 h. The reaction was stopped by adding 5 μl of stop solution to each test well followed by mixing and incubation at RT for 10 minutes. 5 μl of detection mix (detection antibody diluted in detection buffer) was added; the contents of the plate were mixed and then incubated in the dark for 1 hour at RT. The signal was recorded at TR-FRET mode (665 nm/615 nm). The results were graphed to calculate the EC50. […].
PAS domain-containing serine/threonine-protein kinase, sequence (Q96RG2 whole entry, the tested form may be a part): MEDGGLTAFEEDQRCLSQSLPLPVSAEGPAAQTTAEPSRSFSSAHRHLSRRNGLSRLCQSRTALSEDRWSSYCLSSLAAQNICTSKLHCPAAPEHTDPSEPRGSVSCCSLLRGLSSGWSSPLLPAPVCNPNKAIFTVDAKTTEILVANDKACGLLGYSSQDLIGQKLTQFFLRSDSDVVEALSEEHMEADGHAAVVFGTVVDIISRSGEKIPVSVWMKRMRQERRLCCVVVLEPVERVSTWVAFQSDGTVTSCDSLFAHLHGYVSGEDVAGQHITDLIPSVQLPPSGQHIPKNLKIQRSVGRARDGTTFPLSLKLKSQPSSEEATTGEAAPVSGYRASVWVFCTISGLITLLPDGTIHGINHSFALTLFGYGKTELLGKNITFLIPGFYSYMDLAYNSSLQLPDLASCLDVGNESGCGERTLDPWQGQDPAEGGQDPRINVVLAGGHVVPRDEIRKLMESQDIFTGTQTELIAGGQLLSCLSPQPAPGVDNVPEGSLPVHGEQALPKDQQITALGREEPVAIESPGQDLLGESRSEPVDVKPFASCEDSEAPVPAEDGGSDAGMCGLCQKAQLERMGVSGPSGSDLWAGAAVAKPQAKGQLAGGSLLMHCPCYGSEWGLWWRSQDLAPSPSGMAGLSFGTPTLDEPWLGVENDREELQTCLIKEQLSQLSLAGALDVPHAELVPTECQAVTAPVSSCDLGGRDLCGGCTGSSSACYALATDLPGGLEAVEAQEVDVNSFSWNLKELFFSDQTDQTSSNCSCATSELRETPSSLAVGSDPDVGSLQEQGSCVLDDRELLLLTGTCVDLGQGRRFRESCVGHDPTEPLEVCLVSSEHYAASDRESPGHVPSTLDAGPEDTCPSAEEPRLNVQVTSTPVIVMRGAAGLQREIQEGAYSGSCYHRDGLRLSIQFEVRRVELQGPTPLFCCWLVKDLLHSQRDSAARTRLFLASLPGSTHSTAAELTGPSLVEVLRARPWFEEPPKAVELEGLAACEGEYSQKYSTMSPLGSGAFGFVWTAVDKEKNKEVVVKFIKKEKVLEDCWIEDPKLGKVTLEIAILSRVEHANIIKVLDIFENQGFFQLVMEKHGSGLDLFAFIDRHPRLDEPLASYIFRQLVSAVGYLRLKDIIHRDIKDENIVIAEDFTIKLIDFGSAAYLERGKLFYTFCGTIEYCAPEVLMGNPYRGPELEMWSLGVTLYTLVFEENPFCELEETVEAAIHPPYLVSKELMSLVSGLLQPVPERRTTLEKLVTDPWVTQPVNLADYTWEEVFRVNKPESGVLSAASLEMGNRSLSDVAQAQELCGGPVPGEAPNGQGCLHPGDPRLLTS

In the case of `CN(c1nc2cc(C(=O)O)ccc2nc1-c1ccc(F)cc1)C1CCNCC1`, the IC50 – broadly, the concentration at which inhibition is half-maximal – was less than 10 µM.
